Consider 7 compounds from PubChem BioAssay (NCI).

Some test systems named below: MDA-MB-231 breast; UO-31 renal; A549 NSCLC; NCI-H23 lung; RXF 393 renal; OVCAR-8 ovarian; RPMI-8226 leukemia; HOP-92 NSCLC.
Assay in all cases: growth of human tumour cells (NCI), 48 h

Where “and” joins values, the source holds several entries; their conditions need not be identical. Equal entries are not always repeated.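 Step 1: Grow cells in 96-well plates. Step 2: Expose to compound for 48 hours at 5 concentrations. Step 3: Interpolate endpoints linearly; if unreached, use highest concentration. GI50 marks 50% less growth. TGI: concentration producing complete growth inhibition.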

As to `COc1cc2nccc(Oc3ccc(NC(=O)Nc4cc(C)on4)c(Cl)c3)c2cc1OC`, the GI50 was 2.18 µM and 2.42 µM in the test with MDA-MB-231 breast; 1.88 µM and 2.5 µM with UO-31 renal; 3.15 µM and 4.31 µM with A549 NSCLC; 2.97 µM and 3.07 µM with NCI-H23 lung; 1.96 µM and 1.79 µM in the test with RXF 393 renal; 3.6 µM and 4.67 µM with OVCAR-8 ovarian. In addition, the GI50 is 9.83 µM and 4.33 µM in the test on RPMI-8226 leukemia; 2.58 µM and 0.911 µM in the test with HOP-92 NSCLC. Further, the TGI in the test with MDA-MB-231 breast was 8.73 µM and > 10 µM; with UO-31 renal it was 5.76 µM and > 10 µM; with A549 NSCLC, 19.1 µM and > 10 µM; with NCI-H23 lung, more than 100 µM; with RXF 393 renal, 6.2 µM and 8.18 µM; in the test on OVCAR-8 ovarian, more than 100 µM. Besides, the TGI with RPMI-8226 leukemia was more than 55.7 µM; with HOP-92 NSCLC, 6.27 µM and 3.44 µM.
`OCCNc1nc(Nc2ccc(Cl)c(Cl)c2)nc2ccccc12`: the GI50 is 1.97 µM in the test with MDA-MB-231 breast; 4.23 µM with UO-31 renal; 4.2 µM in the test on A549 NSCLC; 10.3 µM in the test on NCI-H23 lung; 4.45 µM in the test with RXF 393 renal; 4.79 µM in the test on OVCAR-8 ovarian. The GI50 with RPMI-8226 leukemia is 3.74 µM; with HOP-92 NSCLC, 2.05 µM. The TGI with MDA-MB-231 breast turned out to be 5.4 µM; in the test with UO-31 renal, 17.9 µM; with A549 NSCLC, 18 µM; with NCI-H23 lung it was 25.1 µM; in the test on RXF 393 renal it was 18.4 µM; in the test with OVCAR-8 ovarian it was 17.6 µM. The results for the TGI in the test with RPMI-8226 leukemia and in the test with HOP-92 NSCLC were 22.1 µM and 7.51 µM, respectively.
Turning to `CC1(C)NCCC[C@]2(C)[C@H]3CC[C@@H]4[C@H]5[C@H](C(=O)/C=C/c6ccccn6)CC[C@]5(CO)CC[C@@]4(C)[C@]3(C)CC[C@@H]12`, the GI50 in the test with MDA-MB-231 breast is 2.29 µM; in the test on UO-31 renal it was 5.7 µM; with A549 NSCLC it was 2.88 µM; in the test with NCI-H23 lung, 3.33 µM; in the test with RXF 393 renal, 2.51 µM; in the test on OVCAR-8 ovarian, 2.02 µM. Moreover, the GI50 was 2.16 µM in the test with RPMI-8226 leukemia and 1.99 µM with HOP-92 NSCLC. The TGI with MDA-MB-231 breast was 5.64 µM; in the test on UO-31 renal, 23.3 µM; with A549 NSCLC it was 11.2 µM; in the test on NCI-H23 lung, 14 µM; in the test with RXF 393 renal it was 8.08 µM; with OVCAR-8 ovarian, 4.54 µM. Further, the TGI in the test with RPMI-8226 leukemia stood at 5.58 µM; in the test on HOP-92 NSCLC, 7.73 µM.
Turning to `CCCCCCCCCNC(=O)/C=C/c1ccc(O)c(O)c1`, the GI50 is 13.2 µM in the test with MDA-MB-231 breast; 1.42 µM in the test on UO-31 renal; 33.3 µM in the test on A549 NSCLC; 17.7 µM in the test with NCI-H23 lung; 19.2 µM with RXF 393 renal; 24 µM with OVCAR-8 ovarian. Moreover, the GI50 with RPMI-8226 leukemia is 0.61 µM; in the test with HOP-92 NSCLC, 2.52 µM. Also, the TGI in the test with MDA-MB-231 breast is 34.7 µM; with UO-31 renal, 14.9 µM; in the test on A549 NSCLC, more than 100 µM; in the test with NCI-H23 lung, 39.2 µM; in the test on RXF 393 renal, 50.9 µM; in the test on OVCAR-8 ovarian, 59.3 µM. The TGI with RPMI-8226 leukemia stood at 19.4 µM; in the test with HOP-92 NSCLC, 17.3 µM.
In the case of `O=C(Nc1cccc(-c2ccc(Cl)c(C(F)(F)F)c2)c1)C1CCN(Cc2cccc3cccnc23)CC1`, the GI50 in the test with MDA-MB-231 breast is 1.84 µM; in the test on UO-31 renal, 1.25 µM; with A549 NSCLC, 1.91 µM; in the test with NCI-H23 lung it was 1.64 µM; in the test with RXF 393 renal it was 1.27 µM; in the test with OVCAR-8 ovarian, 1.93 µM. In addition, the results for the GI50 in the test on RPMI-8226 leukemia and with HOP-92 NSCLC were 2.07 µM and 1.36 µM, respectively. In addition, the TGI in the test on MDA-MB-231 breast turned out to be 3.41 µM; in the test with UO-31 renal, 2.52 µM; in the test with A549 NSCLC, 3.85 µM; in the test on NCI-H23 lung it was 3.19 µM; in the test on RXF 393 renal it was 2.61 µM; in the test on OVCAR-8 ovarian, 4.19 µM. The TGI was 5.4 µM in the test with RPMI-8226 leukemia and 2.83 µM in the test on HOP-92 NSCLC.
For the compound `O=C1C=CC(=O)N1c1cccc(N2C(=O)C=CC2=O)c1`, the GI50 is 1.97 µM in the test with MDA-MB-231 breast; 1.94 µM in the test with UO-31 renal; 19.3 µM in the test on A549 NSCLC; 2.54 µM in the test on NCI-H23 lung; 1.7 µM with RXF 393 renal; 2.25 µM with OVCAR-8 ovarian. Besides, the GI50 was 2.94 µM with RPMI-8226 leukemia and 1.75 µM with HOP-92 NSCLC. For the same compound, the TGI in the test on MDA-MB-231 breast amounted to 4.53 µM; in the test on UO-31 renal, 4.11 µM; with A549 NSCLC it was 45.4 µM; in the test with NCI-H23 lung, 7.07 µM; with RXF 393 renal, 3.1 µM; with OVCAR-8 ovarian, 5.17 µM. The figures for the TGI with RPMI-8226 leukemia and in the test on HOP-92 NSCLC were 7.19 µM and 3.78 µM, respectively.
As for `Oc1ccc(C2c3ccccc3Oc3ccccc32)c2cccnc12`, the GI50 in the test with MDA-MB-231 breast was 4.36 µM; with UO-31 renal it was 1.21 µM; with A549 NSCLC it was 1.79 µM; in the test with NCI-H23 lung, 2.26 µM; with RXF 393 renal, 1.68 µM; in the test with OVCAR-8 ovarian, 1.6 µM. In addition, the GI50 in the test with RPMI-8226 leukemia was 1.7 µM; with HOP-92 NSCLC it was 1.86 µM. The TGI in the test on MDA-MB-231 breast is more than 100 µM; in the test on UO-31 renal it was 19.7 µM; with A549 NSCLC it was more than 100 µM; in the test on NCI-H23 lung, more than 100 µM; in the test on RXF 393 renal it was 7.1 µM; in the test on OVCAR-8 ovarian it was more than 100 µM. The results for the TGI in the test on RPMI-8226 leukemia and in the test on HOP-92 NSCLC were more than 100 µM and 98.7 µM, respectively.
